Read-outs that look alike come from different tables or passages of the source.
Key:
[1] = target: T1, human CB2 receptors (Homo sapiens, UniProt P34972); test: cAMP assay, human CB2; assay type: cell-based
T1 construct: expressed in transfected cells; host or cells: CHO cells
Protocol: (§1) CHO cells expressing human CB1 or CB2 receptors are seeded 17-24 hours prior to the experiment 50.000 cells per well in a black 96 well plate with flat clear bottom (Corning Costar #3904) in DMEM (Invitrogen No. 31331), lx HT supplement, with 10% fetal calf serum and incubated at 5% CO2 and 37° C. in a humidified incubator. The growth medium was exchanged with Krebs Ringer Bicarbonate buffer with 1 mM IBMX and incubated at 30° C. for 30 min. Compounds were added to a final assay volume of 100 μl and incubated for 30 min at 30° C. Using the cAMP-Nano-TRF detection kit the assay (Roche Diagnostics) was stopped by the addition of 50 μl lysis reagent (Tris, NaCl, 1.5% Triton X100, 2.5% NP40, 10% NaN3) and 50 μl detection solutions (20 μM mAb Alexa700-cAMP 1:1, and 48 μM Ruthenium-2-AHA-cAMP) and shaken for 2 h at room temperature. The time-resolved energy transfer is measured by a TRF reader (Evotec Technologies GmbH), equipped with a ND:YAG laser as excitation source. The plate is measured twice with the excitation at 355 nm and at the emission with a delay of 100 ns and a gate of 100 ns, total exposure time 10 s at 730 (bandwidth 30 nm) or 645 nm (bandwidth 75 nm), respectively. The FRET signal is calculated as follows: FRET=T730-Alexa730-P(T645-B645) with P=Ru730-B730/Ru645-B645, where T730 is the test well measured at 730 nM, T645 is the test well measured at 645 nm, B730 and B645 are the buffer controls at 730 nm and 645 nm, respectively. cAMP content is determined from the function of a standard curve spanning from 10 μM to 0.13 nM cAMP.
(§2) EC50 values were determined using Activity Base analysis (ID Business Solution, Limited). The EC50 values for a wide range of cannabinoid agonists generated from this assay were in agreement with the values published in the scientific literature.

[2] = target: T2, human CB1 receptors (Homo sapiens, UniProt P21554); test: cAMP assay, human CB1; assay type: cell-based
T2 construct: expressed in transfected cells; host or cells: CHO cells
Protocol: as §1, §2

[3] = functional cAMP assay, CHO cells expressing human CB2, read-out: Ec50: CB2 - hu cAMP
[4] = functional cAMP assay, CHO cells expressing human CB1, read-out: Ec50: CB1 - hu cAMP

T1 sequence (P34972 whole entry): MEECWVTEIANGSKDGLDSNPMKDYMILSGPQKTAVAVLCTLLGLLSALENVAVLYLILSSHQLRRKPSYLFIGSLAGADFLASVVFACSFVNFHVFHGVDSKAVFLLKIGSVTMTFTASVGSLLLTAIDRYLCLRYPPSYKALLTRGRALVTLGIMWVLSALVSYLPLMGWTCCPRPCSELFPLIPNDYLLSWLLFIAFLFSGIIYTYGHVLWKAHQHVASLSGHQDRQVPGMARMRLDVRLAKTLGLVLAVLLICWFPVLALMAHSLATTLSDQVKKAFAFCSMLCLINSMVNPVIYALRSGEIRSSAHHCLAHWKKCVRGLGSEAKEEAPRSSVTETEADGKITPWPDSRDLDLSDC
T2 sequence (P21554 whole entry): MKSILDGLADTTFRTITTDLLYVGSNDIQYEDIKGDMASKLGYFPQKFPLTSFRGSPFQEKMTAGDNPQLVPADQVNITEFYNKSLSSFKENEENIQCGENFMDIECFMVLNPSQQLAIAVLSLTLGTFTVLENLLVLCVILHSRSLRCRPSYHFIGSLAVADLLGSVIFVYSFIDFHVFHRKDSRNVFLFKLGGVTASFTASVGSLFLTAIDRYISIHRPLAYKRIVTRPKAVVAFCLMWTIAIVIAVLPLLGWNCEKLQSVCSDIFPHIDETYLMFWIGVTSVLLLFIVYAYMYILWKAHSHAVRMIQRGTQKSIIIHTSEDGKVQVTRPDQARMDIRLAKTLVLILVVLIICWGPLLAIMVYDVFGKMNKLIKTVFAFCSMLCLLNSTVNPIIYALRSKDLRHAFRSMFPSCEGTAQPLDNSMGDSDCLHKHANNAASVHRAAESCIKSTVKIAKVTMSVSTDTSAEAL

| EC50 [1, 3] [nM] | EC50 [2, 4] [nM] | SMILES | EC50 [1] [nM] | EC50 [2] [nM] |
| --- | --- | --- | --- | --- |
| 10.6 | > 10000 | CCNC(=O)CN1CCN(C(=O)n2nnn(-c3ccc(Cl)cc3)c2=O)CC1 [Example 106, 2-{4-[4-(4-Chloro-phenyl)-5-oxo-4,5-dihydro-tetrazole-1-carbonyl]-piperazin-1-yl}-N-ethyl-acetamide] | – | – |
| 7.6 | > 10000 | Cn1ccc2c(-n3nnn(C(=O)N4CCOCC4)c3=O)cccc21 [Example 132, 1-(1-methylindol-4-yl)-4-(morpholine-4-carbonyl)tetrazol-5-one] | – | – |
| 497 | > 10000 | CCC(=O)N1CCN(C(=O)n2nnn(-c3cccc(F)c3)c2=O)CC1 [Example 39, 1-(3-Fluoro-phenyl)-4-(4-propionyl-piperazine-1-carbonyl)-1,4-dihydro-tetrazol-5-one] | – | – |
| 92 | > 10000 | CC(=O)N1CCN(C(=O)n2nnn(-c3cccc(F)c3)c2=O)CC1 [Example 38, 1-(4-Acetyl-piperazine-1-carbonyl)-4-(3-fluoro-phenyl)-1,4-dihydro-tetrazol-5-one] | – | – |
| 327 | > 10000 | CCOC(=O)C(C)(C)n1nnn(-c2cccc(F)c2)c1=O [Example 16, 2-[4-(3-Fluoro-phenyl)-5-oxo-4,5-dihydro-tetrazol-1-yl]-2-methyl-propionic acid ethyl ester] | – | – |
| 567 | > 10000 | CCOC(=O)N1CCN(C(=O)n2nnn(-c3cccc(F)c3)c2=O)CC1 [Example 50, 4-[4-(3-Fluoro-phenyl)-5-oxo-4,5-dihydro-tetrazole-1-carbonyl]-piperazine-1-carboxylic acid ethyl ester] | – | – |
| 13.9 | > 10000 | CCCCNC(=O)CN1CCN(C(=O)n2nnn(-c3cccc(OC(F)(F)F)c3)c2=O)CC1 [Example 108, N-Butyl-2-{4-[5-oxo-4-(3-trifluoromethoxy-phenyl)-4,5-dihydro-tetrazole-1-carbonyl]-piperazin-1-yl}-acetamide] | – | – |
| 15 | > 10000 | CC(=O)N[C@@H]1CCN(C(=O)n2nnn(-c3cccc(Cl)c3)c2=O)C1 [Example 65, N—{(R)-1-[4-(3-Chloro-phenyl)-5-oxo-4,5-dihydro-tetrazole-1-carbonyl]-pyrrolidin-3-yl}-acetamide] | – | – |
| 10.8 | > 10000 | CCN(C(C)=O)C1CCN(C(=O)n2nnn(-c3ccc(Cl)cc3)c2=O)C1 (centres unmarked) [Example 73, N-{1-[4-(4-Chloro-phenyl)-5-oxo-4,5-dihydro-tetrazole-1-carbonyl]-pyrrolidin-3-yl}-N-ethyl-acetamide] | – | – |
| 4.4 | > 10000 | O=C(N1CCOCC1)n1nnn(-c2cccc(OC(F)(F)F)c2)c1=O [Example 102, 1-(Morpholine-4-carbonyl)-4-(3-trifluoromethoxy-phenyl)-1,4-dihydro-tetrazol-5-one] | – | – |
| 91.1 | > 10000 | CC(=O)N[C@H]1CCN(C(=O)n2nnn(-c3cccc(F)c3)c2=O)C1 [Example 42, N—{(S)-1-[4-(3-Fluoro-phenyl)-5-oxo-4,5-dihydro-tetrazole-1-carbonyl]-pyrrolidin-3-yl}-acetamide] | – | – |
| 1.9 | > 10000 | COCCCN(C)C(=O)n1nnn(-c2ccc(Cl)cc2)c1=O [Example 88, 4-(4-Chloro-phenyl)-5-oxo-4,5-dihydro-tetrazole-1-carboxylic acid (3-methoxy-propyl)-methyl-amide] | – | – |
| 3.2 | > 10000 | O=C(N1CCOCC1)n1nnn(-c2cccc(Cl)c2)c1=O [Example 101, 1-(3-Chloro-phenyl)-4-(morpholine-4-carbonyl)-1,4-dihydro-tetrazol-5-one] | – | – |
| 2.7 | > 10000 | CC1(C)CCN(C(=O)n2nnn(-c3cccc(F)c3)c2=O)C1 [Example 47, 1-(3,3-Dimethyl-pyrrolidine-1-carbonyl)-4-(3-fluoro-phenyl)-1,4-dihydro-tetrazol-5-one] | – | – |
| 507 | > 10000 | C[C@@H]1CN(C(=O)n2nnn(-c3cccc(Cl)c3)c2=O)C[C@H](C)O1 [Example 136, 1-(3-chlorophenyl)-4-[(2R,6S)-2,6-dimethylmorpholine-4-carbonyl]tetrazol-5-one] | – | – |

Further lines, the molecule ahead of its results:

| SMILES | EC50 [1, 3] [nM] | EC50 [2, 4] [nM] | EC50 [1] [nM] | EC50 [2] [nM] |
| --- | --- | --- | --- | --- |
| CN(CCc1ccccc1)C(=O)n1nnn(-c2cccc(F)c2)c1=O [Example 5, 4-(3-Fluoro-phenyl)-5-oxo-4,5-dihydro-tetrazole-1-carboxylic acid methyl-phenethyl-amide] | 0.8 | > 10000 | – | – |
| CCN(Cc1ccccc1)C(=O)n1nnn(-c2cccc(F)c2)c1=O [Example 12, 4-(3-Fluoro-phenyl)-5-oxo-4,5-dihydro-tetrazole-1-carboxylic acid benzyl-ethyl-amide] | – | – | 0.6 | > 10000 |
| CCN(CCOC)C(=O)n1nnn(-c2cccc(OC(F)(F)F)c2)c1=O [Example 81, 5-Oxo-4-(3-trifluoromethoxy-phenyl)-4,5-dihydro-tetrazole-1-carboxylic acid ethyl-(2-methoxy-ethyl)-amide] | 4 | > 10000 | – | – |
| CC1(C)CCN(C(=O)n2nnn(-c3cccc(F)c3)c2=O)CC1 [Example 28, 1-(4,4-Dimethyl-piperidine-1-carbonyl)-4-(3-fluoro-phenyl)-1,4-dihydro-tetrazol-5-one] | 0.8 | > 10000 | – | – |
| O=C(N1CCc2cc(F)ccc2C1)n1nnn(-c2cccc(F)c2)c1=O [Example 11, 1-(6-Fluoro-3,4-dihydro-1H-isoquinoline-2-carbonyl)-4-(3-fluoro-phenyl)-1,4-dihydro-tetrazol-5-one] | 78.9 | > 10000 | – | – |
| CCNC(=O)CN1CCN(C(=O)n2nnn(-c3cccc(OC(F)(F)F)c3)c2=O)CC1 [Example 105, N-Ethyl-2-{4-[5-oxo-4-(3-trifluoromethoxy-phenyl)-4,5-dihydro-tetrazole-1-carbonyl]-piperazin-1-yl}-acetamide] | 20.1 | > 10000 | – | – |
| CCOCCN(C)C(=O)n1nnn(-c2cccc(Cl)c2)c1=O [Example 111, 4-(3-Chloro-phenyl)-5-oxo-4,5-dihydro-tetrazole-1-carboxylic acid (2-ethoxy-ethyl)-methyl-amide] | 1.5 | > 10000 | – | – |
| O=C(CN1CCN(C(=O)n2nnn(-c3cccc(Cl)c3)c2=O)CC1)N1CCCC1 [Example 95, 1-(3-Chloro-phenyl)-4-[4-(2-oxo-2-pyrrolidin-1-yl-ethyl)-piperazine-1-carbonyl]-1,4-dihydro-tetrazol-5-one] | 4.7 | > 10000 | – | – |
| COCCN(C(=O)n1nnn(-c2cccc(Cl)c2)c1=O)C(C)C [Example 83, 4-(3-Chloro-phenyl)-5-oxo-4,5-dihydro-tetrazole-1-carboxylic acid isopropyl-(2-methoxy-ethyl)-amide] | – | – | 5.3 | > 10000 |
| CC1CN(C(=O)n2nnn(-c3cccc(Cl)c3)c2=O)CC(C)O1 (centres unmarked) [Example 137, 1-(3-chlorophenyl)-4-(2,6-dimethylmorpholine-4-carbonyl)tetrazol-5-one] | 130 | > 10000 | – | – |
| NC(=O)C1CCCN(C(=O)n2nnn(-c3cccc(F)c3)c2=O)C1 (centres unmarked) [Example 3, 1-[4-(3-Fluoro-phenyl)-5-oxo-4,5-dihydro-tetrazole-1-carbonyl]-piperidine-3-carboxylic acid amide] | 15.9 | > 10000 | – | – |
| CCN(CCOC)C(=O)n1nnn(-c2cccc(Cl)c2)c1=O [Example 80, 4-(3-Chloro-phenyl)-5-oxo-4,5-dihydro-tetrazole-1-carboxylic acid ethyl-(2-methoxy-ethyl)-amide] | – | – | 2.4 | > 10000 |
| Cc1noc(C2CCCN2C(=O)n2nnn(-c3cccc(F)c3)c2=O)n1 (centres unmarked) [Example 25, 1-(3-Fluoro-phenyl)-4-[2-(3-methyl-[1,2,4]oxadiazol-5-yl)-pyrrolidine-1-carbonyl]-1,4-dihydro-tetrazol-5-one] | 26 | > 10000 | – | – |
| CC(=O)NC1CCN(C(=O)n2nnn(-c3cccc(F)c3)c2=O)CC1 [Example 26, N-{1-[4-(3-Fluoro-phenyl)-5-oxo-4,5-dihydro-tetrazole-1-carbonyl]-piperidin-4-yl}-acetamide] | 17.8 | > 10000 | – | – |
| O=C(Cn1nnn(-c2cccc(Cl)c2)c1=O)N1CCOCC1 [Example 115, 1-(3-Chloro-phenyl)-4-(2-morpholin-4-yl-2-oxo-ethyl)-1,4-dihydro-tetrazol-5-one] | 2020 | > 10000 | – | – |
| COCCNC(=O)n1nnn(-c2cccc(F)c2)c1=O [Example 110, 4-(3-Fluoro-phenyl)-5-oxo-4,5-dihydro-tetrazole-1-carboxylic acid (2-methoxy-ethyl)-amide] | 968 | > 10000 | – | – |
